C1CNCCNCCNCCN1
solubility (mole fraction)
Settings | 298.15 K | 303.15 K | 308.15 K | 313.15 K | 318.15 K | 323.15 K
in isopropanol | 0.00193 | 0.00202 | 0.00213 | 0.00224 | 0.0023 | 0.00249
in methanol | 0.00266 | 0.00268 | 0.00305 | 0.00318 | 0.00321 | 0.00328

Source: BigSolDB 2.1
